The target of the first assay is T1, human histamine H3 receptor (Homo sapiens, UniProt Q9Y5N1).
T1 construct: One μg supercoiled H3 receptor cDNA was added to the cells and mixed; expressed in transfected cells; membranes prepared from cell pellets
T1 sequence (Q9Y5N1 whole entry): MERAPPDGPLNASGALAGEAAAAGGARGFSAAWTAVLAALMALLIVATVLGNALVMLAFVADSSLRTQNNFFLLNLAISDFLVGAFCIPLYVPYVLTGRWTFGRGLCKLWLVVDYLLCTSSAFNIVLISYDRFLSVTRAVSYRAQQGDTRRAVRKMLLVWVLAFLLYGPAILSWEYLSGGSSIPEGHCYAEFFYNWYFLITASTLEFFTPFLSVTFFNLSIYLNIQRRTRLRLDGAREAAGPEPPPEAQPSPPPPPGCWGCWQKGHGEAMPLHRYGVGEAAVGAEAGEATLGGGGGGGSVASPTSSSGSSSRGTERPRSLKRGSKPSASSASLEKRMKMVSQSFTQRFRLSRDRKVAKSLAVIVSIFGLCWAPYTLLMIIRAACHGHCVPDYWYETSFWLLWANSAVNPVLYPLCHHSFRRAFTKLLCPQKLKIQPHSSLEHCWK
As to the kind of experiment: [3H]-N-methylhistamine binding assay. As to conditions: membranes of histamine H3 receptor-expressing SK-N-MC cells; 0.8 nM [3H]-N-methylhistamine; 45 min at 25° C.; Ki=(IC50)/(1+([L]/(KD)). Here is the method: The histamine H3 receptor binding effectiveness of compounds of the present invention was determined using the human histamine H3 receptor, Lovenberg et al Mol. Pharmacol. 1999, 1107. Screening using the human receptor is particularly important for the identification of new therapies for the treatment of human disease. Prior binding assays, for example, relied on rat synaptosomes (Garbarg et al J. Pharmacol. Exp. Ther. 1992, 263, 304), rat cortical membranes (West et al Mol. Pharmacol. 1990, 610), and guinea pig brain (Korte et al Biochem. Biophys. Res. Commun. 1990, 978). A recent comparative study comparing human H3 receptor activity with H3 receptors from rodent and primate have shown significant differences in the respective pharmacology of the rodent and primate receptors to the human receptor. (West et al Eur. J. Pharmacol. 1999, 233; Lovenberg et al., J. Pharmacol. Exp. Ther. 2000, 293, 771-778.)
A 10 cm tissue culture dish with a confluent monolayer of SK-N-MC cells was split two days prior to transfection. Using sterile technique the media was removed and the cells were detached from the dish by the addition of trypsin. One fifth of the cells were then placed onto a new 10 cm dish. Cells were grown in a 37° C. incubator with 5% CO2 in Minimal Essential Media Eagle with 10% Fetal Bovine Serum. After two days cells were approximately 80% confluent. These were removed from the dish with trypsin and pelleted in a clinical centrifuge. The pellet was then re-suspended in 400 μL complete media and transferred to an electroporation cuvette with a 0.4 cm gap between the electrodes (Bio-Rad #165-2088). One μg supercoiled H3 receptor cDNA was added to the cells and mixed. The voltage for the electroporation was set at 0.25 kV, the capacitance is set at 960 μF. After electroporation the cells were diluted into 10 mL complete media and plated onto four 10 cm dishes. Because of the variability in the efficiency of electroporation four different concentrations of cells were plated. The ratios used were; 1:20, 1:10, 1:5, with the remainder of the cells being added to the fourth dish. The cells were allowed to recover for 24 h before adding the selection media (complete media with 600 μg/mL G418). After 10 days dishes were analyzed for surviving colonies of cells. Dishes with well isolated colonies were used. Cells from individual colonies were isolated and tested. SK-N-MC cells were used because they give efficient coupling for inhibition of adenylate cyclase. The clones that gave the most robust inhibition of adenylate cyclase in response to histamine were used for further study.
Cell pellets from histamine H3 receptor-expressing SK-N-MC cells were homogenized in 20 mM Tris HCl/0.5 mM EDTA. Supernatants from a 800 g spin were collected, recentrifuged at 30,000 g for 30 minutes. Pellets were re-homogenized in 50 mM Tris/5 mM EDTA (pH 7.4). Membranes were incubated with 0.8 nM [^3H]-N-methylhistamine plus/minus test compounds for 45 min at 25° C. and harvested by rapid filtration over GF/C glass fiber filters (pretreated with 0.3% polyethylenimine) followed by four washes with ice cold buffer. Filters were dried, added to 4 mL scintillation cocktail and then counted on a liquid scintillation counter. Non-specific binding was defined with 10 μM histamine. PKi values were calculated based on a KD of 800 pM and a ligand concentration ([L]) of 800 pM according to the formula: Ki=(IC50)/(1+([L]/(KD))
Take `CN(C)CCCSc1ncc(C(=NO)c2ccc(Cl)cc2)n1C` (mixture of isomers) [(4-Chlorophenyl)-[2-(3-dimethylamino-propylsulfanyl)-3-methyl-3H-imidazol-4-yl]-methanone oxime]: the inhibitory constant (Ki) (usually a measure of affinity in units of concentration, obtained from inhibition or displacement) worked out at 3.2 nM.

`CC(C)N1CCC(COc2ncc(C(O)c3ccc(C#N)cc3)n2C)CC1` (stereo not shown) [4-{Hydroxy-[2-(1-isopropyl-piperidin-4-ylmethoxy)-3-methyl-3H-imidazol-4-yl]-methyl}-benzonitrile] showed an inhibitory constant (Ki) of 7.6 nM.

`CC(C)N1CCC(COc2ncc(C(=O)c3ccccc3Cl)n2C)CC1` [(2-Chlorophenyl)-[2-(1-isopropyl-piperidin-4-ylmethoxy)-3-methyl-3H-imidazol-4-yl]-methanone] gave an inhibitory constant (Ki) of 1.3 nM.

As for `CC(C)N1CCC(COc2ncc(C(=O)c3cc(Cl)cc(Cl)c3)n2C)CC1` [(3,5-Dichlorophenyl)-[2-(1-isopropyl-piperidin-4-ylmethoxy)-3-methyl-3H-imidazol-4-yl]-methanone], the inhibition constant (Ki) stood at 4 nM.

For the compound `CC(C)N1CCC(COc2ncc(C(=O)c3cccc(Cl)c3)n2C)CC1` [(3-Chlorophenyl)-[2-(1-isopropyl-piperidin-4-ylmethoxy)-3-methyl-3H-imidazol-4-yl]-methanone], the Ki came to 2.8 nM.

In turn, `CCN1CCC(COc2ncc(C(=O)c3ccc(Br)cc3)n2C)CC1` [(4-Bromophenyl)-[2-(1-ethyl-piperidin-4-ylmethoxy)-3-methyl-3H-imidazol-4-yl]-methanone] returned an inhibition constant (Ki) of 6.6 nM.

Take `CC(C)N1CCC(COc2ncc(C(=O)c3ccc(Br)cc3)n2C)CC1` [(4-Bromophenyl)-[2-(1-isopropyl-piperidin-4-ylmethoxy)-3-methyl-3H-imidazol-4-yl]-methanone]: affinity was put at a Ki of 5.3 nM.

As for `CCC(C)N1CCC(COc2ncc(C(=O)c3ccc(Br)cc3)n2C)CC1` (stereo not shown) [(4-Bromophenyl)-[2-(1-sec-butyl-piperidin-4-ylmethoxy)-3-methyl-3H-imidazol-4-yl]-methanone], the affinity corresponds to a Ki of 9 nM.

`CN(C)CCCSc1ncc(C(=O)c2ccc(Br)cc2)n1C` [(4-Bromophenyl)-[2-(3-dimethylamino-propylsulfanyl)-3-methyl-3H-imidazol-4-yl]-methanone] came in with a Ki of 1.6 nM.

Regarding `Cn1c(C(=O)c2ccc(Br)cc2)cnc1SCCCN1CCCCC1` [(4-Bromophenyl)-[3-methyl-2-(3-piperidin-1-yl-propylsulfanyl)-3H-imidazol-4-ylmethanone], the affinity, expressed as Ki, was 7.5 nM.

On to `CN(C)CCSc1ncc(C(=O)c2ccc(Cl)cc2)n1C` [(4-Chloro-phenyl)-[2-(2-dimethylamino-ethylsulfanyl)-3-methyl-3H-imidazol-4-yl]methanone], for which the affinity, expressed as Ki, was 98 nM.

`CN(C)CCC[S+]([O-])c1ncc(C(=O)c2ccc(Cl)cc2)n1C` (stereo not shown) [(4-Chloro-phenyl)-[2-(3-dimethylamino-propane-1-sulfinyl)-3-methyl-3H-imidazol-4-yl]-methanone] yielded a Ki of 315 nM.

For the compound `CN1CCC(Sc2ncc(C(=O)c3ccc(Cl)cc3)n2C)CC1` [(4-Chloro-phenyl)-[3-methyl-2-(1-methyl-piperidin-4-ylsulfanyl)-3H-imidazol-4-yl]-methanone], the affinity, expressed as Ki, was 7 nM.

Consider `CN1CCCC1CCSc1ncc(C(=O)c2ccc(Cl)cc2)n1C` (stereo not shown) [(4-Chloro-phenyl)-{3-methyl-2-[2-(1-methyl-pyrrolidin-2-yl)-ethylsulfanyl]-3H-imidazol-4-yl}-methanone], for which the Ki came out at 2 nM.

The compound `CC(C)N1CCC(Oc2ncc(C(=O)c3ccc(Cl)cc3)n2C)CC1` [(4-Chlorophenyl)-[2-(1-isopropyl-piperidin-4-yloxy)-3-methyl-3H-imidazol-4-yl]-methanone] had an inhibitory constant (Ki) of 25 nM.

For the compound `CC(C)N1CCC(Sc2ncc(C(=O)c3ccc(Cl)cc3)n2C)CC1` [(4-Chlorophenyl)-[2-(1-isopropyl-piperidin-4-ylsulfanyl)-3-methyl-3H-imidazol-4-yl]-methanone], the affinity corresponds to a Ki of 3 nM.

Turning to `CC(C)N1CCC(COc2ncc(C(=O)c3ccc(Cl)cc3)n2C)CC1` [(4-Chlorophenyl)-[2-(1-isopropylpiperidin-4-ylmethoxy)-3-methyl-3H-imidazol-4-yl]-methanone], the inhibition constant Ki came to 3.7 nM.

As for `CN(C)CCCSc1ncc(C(=O)c2ccc(Cl)cc2)n1C` [(4-Chlorophenyl)-[2-(3-dimethylamino-propylsulfanyl)-3-methyl-3H-imidazol-4-yl]-methanone], the Ki was determined as 2 nM.

With `Cn1c(C(=O)c2ccc(Cl)cc2)cnc1SCCCN1CCCCC1` [(4-Chlorophenyl)-[3-methyl-2-(3-piperidin-1-yl-propylsulfanyl)-3H-imidazol-4-yl]-methanone], affinity was put at a Ki of 3.1 nM.

`CC(C)N1CCC(COc2ncc(C(=O)c3ccc(F)cc3)n2C)CC1` [(4-Fluorophenyl)-[2-(1-isopropyl-piperidin-4-ylmethoxy)-3-methyl-3H-imidazol-4-yl]-methanone] displayed an inhibition constant Ki of 2.5 nM.

`CC(C)N1CCC(COc2ncc(C(=O)c3ccc([N+](=O)[O-])cc3)n2C)CC1` [[2-(1-Isopropyl-piperidin-4-ylmethoxy)-3-methyl-3H-imidazol-4-yl]-(4-nitro-phenyl)-methanone] showed an inhibition constant Ki of 4.6 nM.

The compound `CC(C)N1CCC(COc2ncc(C(=O)c3ccc(C(F)(F)F)cc3)n2C)CC1` [[2-(1-Isopropyl-piperidin-4-ylmethoxy)-3-methyl-3H-imidazol-4-yl]-(4-trifluoromethyl-phenyl)-methanone] yielded a Ki of 4.1 nM.

As for `CN(C)CCCSc1ncc(C(=O)c2ccccc2)n1C` [[2-(3-Dimethylamino-propylsulfanyl)-3-methyl-3H-imidazol-4-yl]-phenyl-methanone], the Ki came out at 4 nM.

`Cn1c(C(=O)c2cccc3ccccc23)cnc1OCCCN1CCCCC1` [[3-Methyl-2-(3-piperidin-1-yl-propoxy)-3H-imidazol-4-yl]-naphthalen-1-yl-methanone]: the affinity, expressed as Ki, was 79 nM.

Consider `Cn1c(CN2CCCCC2)cnc1OCCCN1CCCCC1` [[3-Methyl-2-(3-piperidin-1-yl-propoxy)-3H-imidazol-4-yl]-piperidin-1-yl-methane], for which the inhibition constant Ki came out at 36.4 nM.

`CN(C)CCCSc1ncc(Cc2ccc(Cl)cc2)n1C` [{3-[5-(4-Chlorobenzyl)-1-methyl-1H-imidazol-2-ylsulfanyl]-propyl}-dimethyl-amine] showed a Ki of 22 nM.

Still in this assay, the particulars now being: value printed in text of Example XVI Step B, no unit at the place.
Compound `Cn1c(C(=O)c2ccc(Cl)cc2)cnc1S(=O)(=O)CCC[N+](C)(C)[O-]` showed a Ki of 10000 nM.

`CN(C)CCCS(=O)(=O)c1ncc(C(=O)c2ccc(Cl)cc2)n1C` [(4-Chlorophenyl)-[2-(3-dimethylamino-propane-1-sulfonyl)-3-methyl-3H-imidazol-4-yl]-methanone] displayed a Ki of 10000 nM.

The values above are taken from patent publication US7265135B2 (Ortho-McNeil Pharmaceutical, Inc., priority 2001, dated 2007).
